According to patent US8772504B2, “Substituted benzoxazole, benzimidazole, oxazolopyridine and imidazopyridine derivatives as gamma secretase modulators” (Janssen Pharmaceuticals, Inc., priority 2009, dated 2014):

Experiments:
Format in all cases: cell-based
Aβtotal [1] = experiment: Screening for γ-secretase-modulating activity, Method 1: Aβtotal sandwich ELISA on SKNBE2 cell media; conditions: SKNBE2 cells carrying APP 695 wild type
Outline: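 SKNBE2 cells expressing wild-type APP 695 were treated with compound for 18 hours. Aβtotal in the medium was measured by sandwich ELISA (6E10 capture, biotinylated 4G8 detection, fluorogenic peroxidase read-out). IC50 came from a 4-parameter fit of % inhibition with top/bottom fixed at 100/0 and Hill slope 1, or as averaged IC50 from % of untreated control.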

Aβtotal [2] = experiment: Screening for γ-secretase-modulating activity, Method 2: Aβtotal Alphalisa on SKNBE2 cell supernatant; conditions: Method 2, Table 3c, SKNBE2 cells carrying APP 695 wild type, overnight incubation
Outline: (§1)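 SKNBE2 cells expressing wild-type APP695, plated at 10^4 cells/well with compound at several concentrations and incubated overnight at 37° C. Aβ42 (C-terminal capture, N-terminal biotinylated detection) and Aβtotal (N-terminal/4G8 pair) measured in supernatant by AlphaLISA. IC50 from 4-parameter fit of percent of compound-free control.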

Aβ42 [3] = experiment: Screening for γ-secretase-modulating activity, Method 2: Aβ42 Alphalisa on SKNBE2 cell supernatant; conditions: Method 2, Table 3c, SKNBE2 cells carrying APP 695 wild type, overnight incubation
Outline: as §1

Aβ42 [4] = experiment: Screening for γ-secretase-modulating activity, Method 1: Aβ42 sandwich ELISA on SKNBE2 cell media; conditions: SKNBE2 cells carrying APP 695 wild type
Outline: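 SKNBE2 cells expressing wild-type APP695 were treated with compound for 18 h in Ultraculture/1% glutamine. Secreted Aβ42 was quantified by sandwich ELISA (C-terminal capture, biotinylated 3D6, TMB, 450 nm), with WST-1 used as a toxicity check. IC50 was derived from 4-parameter fits of % inhibition or % of untreated control.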

[5] = Table 3a, 18 hours, XLfit, top/bottom fixed to 100 and 0, hill slope 1
[6] = Table 3b, non-linear regression of % of control, averaged IC50 values
[7] = Homo sapiens, Table 3b, non-linear regression of % of control, averaged IC50 values

**Q.** Which results are given for `Cc1ncn(-c2c(F)cc(Nc3cccc4c3nc(-c3ccc(F)cc3)n4C)cc2F)n1` [Compound 102]?
**A.** IC50 (Aβtotal [1]; [5]): > 3000 nM; IC50 (Aβtotal [1]; [6]): > 3000 nM; IC50 (Aβtotal [2]): 8.13 µM; IC50 (Aβ42 [3]): 1290 nM; IC50 (Aβ42 [4]; [5]): 839 nM; IC50 (Aβ42 [4]; [6]): 871 nM

**Q.** With `COc1cc(Nc2cccc3c2nc(-c2ccc(C(F)(F)F)nc2)n3C(C)C)ccc1-n1cnc(C)c1` [Compound 117] as the molecule, how does the IC50 (Aβtotal [1]; [6]) read?
**A.** > 3000 nM

**Q.** And the IC50 (Aβtotal [2])?
**A.** > 10 µM

**Q.** And the IC50 (Aβ42 [3])?
**A.** 28 nM

**Q.** What about the IC50 (Aβ42 [4]; [6]) of the same molecule?
**A.** 33 nM

**Q.** With `COc1cc(Nc2cccc3c2nc(-c2ccc(Cl)s2)n3C(C)C)ccc1-n1cnc(C)n1` [Compound 121] as the molecule, how does the IC50 (Aβtotal [1]; [6]) read?
**A.** > 3000 nM

**Q.** And the IC50 (Aβtotal [2])?
**A.** > 10 µM

**Q.** And the IC50 (Aβ42 [3])?
**A.** 34 nM

**Q.** What about the IC50 (Aβ42 [4]; [6]) of the same molecule?
**A.** 20 nM

**Q.** `Cc1cn(-c2ccc(Nc3nccc4c3nc(-c3ccc(F)cc3)n4C)cc2F)cn1` [Compound 137] was tested. Which IC50 (Aβtotal [1]; [6]) did it give?
**A.** > 3000 nM

**Q.** What about the IC50 (Aβtotal [2]) of the same molecule?
**A.** > 10 µM

**Q.** And the IC50 (Aβ42 [3])?
**A.** 21 nM

**Q.** And the IC50 (Aβ42 [4]; [6])?
**A.** 50 nM

**Q.** Which IC50 (Aβtotal [1]; [6]) does the source give for `COc1nc(Nc2nc(C)cc3c2nc(-c2ccccc2Cl)n3C)ccc1-n1cnc(C)c1` [Compound 149] here?
**A.** > 10000 nM

**Q.** What about the IC50 (Aβtotal [2]) of the same molecule?
**A.** 9.77 µM

**Q.** What about the IC50 (Aβ42 [3]) of the same molecule?
**A.** 195 nM

**Q.** And the IC50 (Aβ42 [4]; [6])?
**A.** 316 nM

**Q.** Which IC50 (Aβtotal [1]; [6]) does the source give for `COc1nc(Nc2nc(C)cc3c2nc(-c2ccc(F)cc2)n3C)ccc1-n1cnc(C)c1` [Compound 150] here?
**A.** 6920 nM

**Q.** And the IC50 (Aβtotal [2])?
**A.** 4.9 µM

**Q.** What about the IC50 (Aβ42 [3]) of the same molecule?
**A.** 145 nM

**Q.** And the IC50 (Aβ42 [4]; [6])?
**A.** 437 nM

**Q.** Which results are given for `COc1nc(Nc2cc(F)cc3c2nc(-c2ccccc2Cl)n3C)ccc1-n1cnc(C)c1` [Compound 151]?
**A.** IC50 (Aβtotal [1]; [6]): > 3000 nM; IC50 (Aβtotal [2]): 4.9 µM; IC50 (Aβ42 [3]): 11 nM; IC50 (Aβ42 [4]; [6]): 5 nM

**Q.** With `COc1cccc(-c2nc3c(Nc4ccc(-n5cnc(C)n5)c(OC)c4)nc(C)cc3n2C)c1` [Compound 163] as the molecule, how does the IC50 (Aβtotal [1]; [6]) read?
**A.** > 3000 nM

**Q.** And the IC50 (Aβtotal [2])?
**A.** 4.27 µM

**Q.** What about the IC50 (Aβ42 [3]) of the same molecule?
**A.** 29 nM

**Q.** And the IC50 (Aβ42 [4]; [6])?
**A.** 48 nM

**Q.** How did the IC50 (Aβtotal [1]; [7]) turn out when `COCCCc1cc(Nc2ccc(-n3cnc(C)n3)c(OC)c2)c2nc(-c3ccc(F)cc3)n(C)c2n1` [Compound 208] was run?
**A.** > 3000 nM

**Q.** And the IC50 (Aβtotal [2]; Homo sapiens)?
**A.** > 10 µM

**Q.** What about the IC50 (Aβ42 [3]; Homo sapiens) of the same molecule?
**A.** 91 nM

**Q.** And the IC50 (Aβ42 [4]; [7])?
**A.** 35 nM
